From PubChem BioAssay AID248 (DTP/NCI, 2004)
Where “and” joins values, the source holds several entries; their conditions need not be identical. Identical values can stand only once. Inconclusive results and toxic doses are left out. Cut-off read from the data, not from the text of the source: active = T/C of 150% or more; inactive = T/C below 125%.

Test system: L1210 leukemia ip in BDF1 mice, survival T/C
Test: NCI In Vivo Anticancer Drug Screen. Data for tumor model L1210 Leukemia (intraperitoneal) in B6D2F1 (BDF1) mice
Conditions: endpoint: mean survival time, higher = longer survival
How it was run: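 Value reflects the ratio of survival in compound-treated mice to survival in vehicle-treated controls, with both groups carrying the same transplanted tumor.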

[1] = dose: 100.0 mg/kg/injection, schedule: Q04DX003 (ip), vehicle: carboxymethylcellulose (CMC)
[2] = dose: 100.0 mg/kg/injection, schedule: Q04DX002 (ip), vehicle: Klucel (hydroxypropylcellulose) (HPC)
[3] = dose: 200.0 mg/kg/injection, schedule: Q04DX002 (ip), vehicle: Klucel (hydroxypropylcellulose) (HPC)
[4] = dose: 100.0 mg/kg/injection, schedule: Q01DX001 (ip), vehicle: saline
[5] = dose: 200.0 mg/kg/injection, schedule: Q01DX001 (ip), vehicle: saline
[6] = dose: 100.0 mg/kg/injection, schedule: Q04DX003 (ip), vehicle: saline
[7] = dose: 200.0 mg/kg/injection, schedule: Q04DX003 (ip), vehicle: saline
[8] = dose: 400.0 mg/kg/injection, schedule: Q04DX003 (ip), vehicle: saline
[9] = dose: 100.0 mg/kg/injection, schedule: Q01DX009 (ip), vehicle: saline with Tween-80
[10] = dose: 100.0 mg/kg/injection, schedule: Q04DX003 (ip), vehicle: saline with Tween-80
[11] = dose: 200.0 mg/kg/injection, schedule: Q04DX003 (ip), vehicle: saline with Tween-80
[12] = dose: 400.0 mg/kg/injection, schedule: Q04DX003 (ip), vehicle: saline with Tween-80

Measured: T/C

CCOC(=O)c1ccc(NC(=O)c2ccc(F)cc2)cc1
inactive: dose: 100.0 mg/kg/injection, schedule: Q01DX001 (ip), vehicle: carboxymethylcellulose (CMC) 97 % of control and 105 % of control | dose: 100.0 mg/kg/injection, schedule: Q01DX009 (ip), vehicle: carboxymethylcellulose (CMC) 103 % of control and 105 % of control | dose: 100.0 mg/kg/injection, schedule: Q04DX002 (ip), vehicle: carboxymethylcellulose (CMC) 96 % of control and 97 % of control | [1] 94 % of control and 98 % of control | dose: 200.0 mg/kg/injection, schedule: Q01DX001 (ip), vehicle: carboxymethylcellulose (CMC) 101 % of control and 91 % of control | dose: 200.0 mg/kg/injection, schedule: Q01DX009 (ip), vehicle: carboxymethylcellulose (CMC) 94 % of control and 91 % of control | dose: 200.0 mg/kg/injection, schedule: Q04DX002 (ip), vehicle: carboxymethylcellulose (CMC) 97 % of control and 100 % of control | dose: 200.0 mg/kg/injection, schedule: Q04DX003 (ip), vehicle: carboxymethylcellulose (CMC) 95 % of control and 91 % of control | dose: 400.0 mg/kg/injection, schedule: Q01DX001 (ip), vehicle: carboxymethylcellulose (CMC) 96 % of control and 90 % of control | dose: 400.0 mg/kg/injection, schedule: Q01DX009 (ip), vehicle: carboxymethylcellulose (CMC) 93 % of control and 106 % of control | dose: 400.0 mg/kg/injection, schedule: Q04DX002 (ip), vehicle: carboxymethylcellulose (CMC) 92 % of control and 90 % of control | dose: 400.0 mg/kg/injection, schedule: Q04DX003 (ip), vehicle: carboxymethylcellulose (CMC) 100 % of control and 91 % of control

CC(C)CN(C)N=Nc1ccc(C(N)=O)cc1
inactive: dose: 100.0 mg/kg/injection, schedule: Q01DX001 (ip), vehicle: other 100 % of control | dose: 200.0 mg/kg/injection, schedule: Q01DX001 (ip), vehicle: other 91 % of control

C=CCON(CC=C)CC=C
inactive: [2] 102 % of control | [3] 102 % of control | dose: 400.0 mg/kg/injection, schedule: Q04DX002 (ip), vehicle: Klucel (hydroxypropylcellulose) (HPC) 94 % of control

CCc1c(Cl)c(C)cc(O)c1Cl
inactive: dose: 25.0 mg/kg/injection, schedule: Q01DX009 (ip), vehicle: gum acacia 98 % of control | dose: 25.0 mg/kg/injection, schedule: Q04DX003 (ip), vehicle: gum acacia 100 % of control | dose: 50.0 mg/kg/injection, schedule: Q01DX009 (ip), vehicle: gum acacia 98 % of control | dose: 50.0 mg/kg/injection, schedule: Q04DX003 (ip), vehicle: gum acacia 90 % of control | dose: 100.0 mg/kg/injection, schedule: Q04DX003 (ip), vehicle: gum acacia 96 % of control

CCOC(=O)NCC1(c2ccccc2)CCNCC1
inactive: dose: 20.0 mg/kg/injection, schedule: Q04DX003 (ip), vehicle: Klucel (hydroxypropylcellulose) (HPC) 102 % of control | dose: 40.0 mg/kg/injection, schedule: Q04DX003 (ip), vehicle: Klucel (hydroxypropylcellulose) (HPC) 102 % of control | dose: 80.0 mg/kg/injection, schedule: Q04DX003 (ip), vehicle: Klucel (hydroxypropylcellulose) (HPC) 102 % of control

COC1CCC2(C)C3CCC4C(=CCC5C(C)(C)C(=O)CCC45C)CC3(C)CCC2C1(C)C (stereo not given)
inactive: dose: 75.0 mg/kg/injection, schedule: Q01DX001 (ip), vehicle: carboxymethylcellulose (CMC) 105 % of control | dose: 150.0 mg/kg/injection, schedule: Q01DX001 (ip), vehicle: carboxymethylcellulose (CMC) 110 % of control | dose: 300.0 mg/kg/injection, schedule: Q01DX001 (ip), vehicle: carboxymethylcellulose (CMC) 104 % of control

NNC(=O)CNc1ccc(Br)cc1F
inactive: [2] 104 % of control | [3] 115 % of control

C[n+]1cccc(C(=O)NN=C2CCCCC2)c1
inactive: dose: 100.0 mg/kg/injection, schedule: Q01DX001 (ip), vehicle: saline with Tween-80 93 % of control | dose: 200.0 mg/kg/injection, schedule: Q01DX001 (ip), vehicle: saline with Tween-80 102 % of control | dose: 400.0 mg/kg/injection, schedule: Q01DX001 (ip), vehicle: saline with Tween-80 94 % of control

CCCCCCCCCCCCCCCC[N+]1([O-])CCOCC1
inactive: dose: 12.5 mg/kg/injection, schedule: Q01DX009 (ip), vehicle: saline 96 % of control | dose: 25.0 mg/kg/injection, schedule: Q01DX009 (ip), vehicle: saline 102 % of control | dose: 50.0 mg/kg/injection, schedule: Q01DX009 (ip), vehicle: saline 98 % of control

COc1cccc(CCN)c1
inactive: dose: 50.0 mg/kg/injection, schedule: Q01DX001 (ip), vehicle: saline 116 % of control | [4] 110 % of control | [5] 118 % of control

O=C(CCl)Nc1cccc(S(=O)(=O)F)c1
inactive: dose: 12.5 mg/kg/injection, schedule: Q01DX009 (ip), vehicle: carboxymethylcellulose (CMC) 93 % of control | dose: 25.0 mg/kg/injection, schedule: Q01DX009 (ip), vehicle: carboxymethylcellulose (CMC) 88 % of control | dose: 50.0 mg/kg/injection, schedule: Q01DX009 (ip), vehicle: carboxymethylcellulose (CMC) 87 % of control | [1] 103 % of control

COc1ccc(N2CCN(c3c4c(nc5ccccc35)CCCCC4)CC2)cc1
inactive: [4] 95 % of control | [5] 106 % of control | dose: 400.0 mg/kg/injection, schedule: Q01DX001 (ip), vehicle: saline 101 % of control

CCOC(=O)C1CCCCC1
inactive: [6] 102 % of control | [7] 98 % of control | [8] 91 % of control

CC(=O)Oc1c(I)cc(I)cc1C(=O)Nc1ccc(Cl)cc1
inactive: dose: 50.0 mg/kg/injection, schedule: Q01DX009 (ip), vehicle: saline with Tween-80 94 % of control | [9] 87 % of control

CCCNC(=O)/C=C/C(=O)NCCC
inactive: [6] 100 % of control | [7] 100 % of control | [8] 100 % of control

C1=C(c2ccccc2)N=C(c2ccccc2)C2C(c3ccccc3)N2C1c1ccccc1 (stereo not given)
inactive: dose: 100.0 mg/kg/injection, schedule: Q01DX001 (ip), vehicle: Klucel (hydroxypropylcellulose) (HPC) 87 % of control | dose: 200.0 mg/kg/injection, schedule: Q01DX001 (ip), vehicle: Klucel (hydroxypropylcellulose) (HPC) 91 % of control

CCCCN1c2ccccc2NP1(=O)c1ccccc1 (stereo not given)
inactive: [10] 94 % of control | [11] 96 % of control | [12] 97 % of control

OC1CSCSC1
inactive: [9] 98 % of control | [10] 98 % of control | dose: 200.0 mg/kg/injection, schedule: Q01DX009 (ip), vehicle: saline with Tween-80 94 % of control | [11] 98 % of control | dose: 400.0 mg/kg/injection, schedule: Q01DX009 (ip), vehicle: saline with Tween-80 94 % of control | [12] 98 % of control

CC(C)=NOC(=O)NCCCl
inactive: dose: 100.0 mg/kg/injection, schedule: Q04DX003 (ip), vehicle: Klucel (hydroxypropylcellulose) (HPC) 103 % of control | dose: 200.0 mg/kg/injection, schedule: Q04DX003 (ip), vehicle: Klucel (hydroxypropylcellulose) (HPC) 101 % of control | dose: 400.0 mg/kg/injection, schedule: Q04DX003 (ip), vehicle: Klucel (hydroxypropylcellulose) (HPC) 97 % of control

Cc1cc(C)[n+]2ccccc2n1
inactive: dose: 75.0 mg/kg/injection, schedule: Q01DX001 (ip), vehicle: saline 102 % of control | dose: 150.0 mg/kg/injection, schedule: Q01DX001 (ip), vehicle: saline 98 % of control
